Drawing on PubChem BioAssay (NCI), this text covers TGI for 17 molecules.

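48-hour exposure; five concentrations; linearly interpolated endpoints. The concentration for full growth arrest is given as TGI.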

Test in all cases: NCI-60 cell line screen, 48 h
In assay [1] the test system is HCT-15 colon.
Assay [2] concerns A498 renal.
The subject of assay [3] is UO-31 renal.
The test system of assay [4] is HL-60(TB) leukemia.
In assay [5] the test system is MCF7 breast.
For assay [6], the system named is NCI-H522 lung.
Assay [7] deals with SK-MEL-28 melanoma.
Assay [8] has as its system LOX IMVI melanoma.
The test system of assay [9] is T-47D breast.
In assay [10] the test system is NCI/ADR-RES ovarian.

In the case of `[N-]=[N+]=CC(=O)OC(CCl)CCl`, the TGI in [1], in assay [2], in assay [3], in assay [4], in [5] and in [6] was more than 100 µM in each case. Moreover, the TGI in assay [7] and in assay [8] was more than 100 µM throughout.
In the case of `Cc1cc(OP2(=O)NCc3ncccc3O2)ccc1Cl` (stereo not given), the TGI in assay [1], in [2], in assay [3], in assay [5], in assay [9] and in [10] was more than 100 µM in each case. Further, the TGI in assay [7] and in assay [8] was more than 100 µM throughout.
As to `O=C1C(=Nc2ccc(Nc3ccccc3)cc2)Oc2ccccc21`, the TGI in assay [1] came out at 13.2 µM; in assay [2], 21 µM; in assay [3], 5.58 µM; in [4], 4.9 µM; in assay [5], 5.74 µM; in assay [9], 9.57 µM. In addition, the TGI in assay [6] was 4.3 µM; in [7] it was 19.3 µM; in assay [8], 4.4 µM.
For `CC(C)(C)N=C(N)NC#N`, the TGI in assay [1], in assay [3], in assay [4], in [5], in [10] and in assay [7] was more than 100 µM in each case. The molecule further yielded a TGI in assay [8] of more than 100 µM.
Regarding `CCOC(=O)CNC(=O)NC12CC3CC(CC(C3)C1)C2`, the TGI was more than 550 µM in assay [1]; 462 µM in assay [2]; 512 µM in [3]; 543 µM in assay [4]; 505 µM in assay [5]; more than 550 µM in assay [10]. Further, the TGI in assay [6] was more than 536 µM; in assay [7], more than 539 µM; in assay [8] it was more than 550 µM.
With `CN(C)CCNC(=O)Cc1ccccc1Nc1c(Cl)cccc1Cl`, the TGI worked out at 29.6 µM in assay [1]; 25.6 µM in assay [3]; 36.1 µM in [4]; 33.7 µM in assay [7]; 26.8 µM in [8].
As to `CCCN(CCC)c1c([N+](=O)[O-])cc(C(=O)N(CC)CC)cc1[N+](=O)[O-]`, the TGI in assay [1] worked out at 90.9 µM; in [3], 63.1 µM; in assay [4] it was 50.8 µM; in [6], 28.6 µM; in assay [7], 64.6 µM; in assay [8] it was 30.8 µM.
Turning to `COc1cc(C2c3cc4c(cc3[C@@H](Nc3ccccc3)C3COC(=O)[C@H]23)OCO4)cc(OC)c1O` (stereo not given in full), the TGI in assay [1] is 2.43 µM; in assay [2] it was 1.65 µM; in [3], 5.07 µM; in [4] it was 1.09 µM; in assay [5] it was more than 41.2 µM; in assay [10], 45.2 µM. Besides, the TGI worked out at 3.7 µM in assay [6], 23.1 µM in assay [7] and 3.38 µM in assay [8].
Take `Cc1ccnc(NC(=S)Nc2ccc([N+](=O)[O-])cc2)c1`: the TGI in assay [1], in [3], in assay [4], in [5], in assay [9] and in [10] was more than 100 µM throughout. Moreover, the TGI in assay [7] and in assay [8] was more than 100 µM in each case.
As for `C=C(C)CNCCN`, the TGI in assay [1], in assay [2], in assay [3], in assay [4], in [9] and in assay [10] was more than 100 µM in each case. Moreover, the TGI in assay [6], in assay [7] and in assay [8] was more than 100 µM throughout.
`Nc1ncc2c(n1)-c1ccccc1OC2N1CCCC1` (stereo not given): the TGI is more than 100 µM in assay [1]; more than 100 µM in assay [3]; 51.7 µM in assay [4]; more than 100 µM in [5]; more than 100 µM in assay [10]; more than 100 µM in [6]. Also, the TGI in assay [7] and in assay [8] was more than 100 µM in each case.
On to `CN1CC[C@]2(c3cccc(O)c3)CC(=O)/C(=C/c3ccccc3)[C@@H]1C2`, for which the TGI in [1] was 4.93 µM; in assay [2], 17 µM; in [3], 10.4 µM; in [4] it was 5.33 µM; in assay [5], 6.06 µM; in [10] it was 16.1 µM. The TGI in [6] stood at 11.2 µM; in assay [7], 13.4 µM; in assay [8] it was 4.71 µM.
On to `O=C1c2cccc3cccc(c23)C(=O)N1CCCNCCCCNCCCNCCCN1C(=O)c2cccc3cccc(c23)C1=O`, for which the TGI was 28.1 µM in [1]; 2.47 µM in assay [2]; 18.6 µM in assay [3]; 1.54 µM in [4]; 0.599 µM in assay [5]; 49.6 µM in assay [10]. Also, the TGI in assay [7] is 2.95 µM.
In the case of `CC1=C(C#N)c2nc3ccccc3n2C(=O)C1(C)CCO` (stereo not given), the TGI in assay [1], in [2], in assay [3], in [4], in assay [5] and in assay [10] was more than 100 µM each time. In addition, the TGI in assay [6], in assay [7] and in assay [8] was more than 100 µM in each case.
Regarding `Clc1ccc(C=NC23CC4CC(CC(C4)C2)C3)c(Cl)c1`, the TGI in [1], in [2], in assay [4], in assay [9], in [10] and in assay [6] was more than 10 µM each time. Besides, the TGI in assay [7] and in assay [8] was more than 10 µM each time.
`CN1Cc2c(nc(-c3ccccc3)c[n+]2[O-])N(C)C1`: the TGI in [1], in assay [2], in assay [3], in assay [4], in [6] and in assay [7] was more than 100 µM throughout. In [8], this molecule gave a TGI of more than 100 µM.
For the molecule `Cc1cc(C)nc(NC(=S)Nc2ccc([N+](=O)[O-])cc2)c1`, the TGI in assay [1], in [2], in assay [3], in [4], in [5] and in [9] was more than 100 µM each time. For the same molecule, the TGI in assay [10], in assay [7] and in [8] was more than 100 µM each time.
